These results are taken from US6677429B1, “Echinocandin derivatives, preparation method and application as anti-fungal agents” (Aventis Pharma S.A., priority 1997, dated 2004).

The experiment addresses T1, Glucane Synthesis of Candida albicans (Candida albicans, UniProt O13428).
T1 construct: 22.5 µg of membrane proteins are incubated in a mixture of 2 Mm of 14C-UDP glucose; endogenous in cells
As to the kind of experiment: Inhibition of the Glucane Synthesis of Candida albicans. The note with it: purified Candida albicans membranes, 14C-UDP glucose, 25° C. for 1 hour, radioactivity on filter counted. The format is biochemical. How it is done:
A—Inhibition of the Glucane Synthesis of Candida albicans.
The membranes of Candida albicans are purified according to the process described by Tang and al Antimicrob. Agents Chemother 35, 99-103, 1991. 22.5 µg of membrane proteins are incubated in a mixture of 2 Mm of 14C-UDP glucose (specific activity=0.34mCi./mmol, 50 μg of α-amylase, 1Mm of dithiotreitol (DTT), 1Mm EDTA, 100 Mm NaF, 7 μM of GTP-γ-S, 1M of sucrose and 5 oMm OF Ttris-HCL (pH 7.8) in a volume of 100 μl. The medium is incubated at 25° C. for 1 hour and the reaction terminated by addition of TCA to a final concentration of 5%. The reaction medium is transferred onto a pre-humidified glass fibre filter. The filter is washed, dried and its radioactivity is counted.
Mulundocandin is used as positive control.
The control of the medium is carried out with the same quantity of DMSO 1%.

T1 sequence (O13428 1-1897): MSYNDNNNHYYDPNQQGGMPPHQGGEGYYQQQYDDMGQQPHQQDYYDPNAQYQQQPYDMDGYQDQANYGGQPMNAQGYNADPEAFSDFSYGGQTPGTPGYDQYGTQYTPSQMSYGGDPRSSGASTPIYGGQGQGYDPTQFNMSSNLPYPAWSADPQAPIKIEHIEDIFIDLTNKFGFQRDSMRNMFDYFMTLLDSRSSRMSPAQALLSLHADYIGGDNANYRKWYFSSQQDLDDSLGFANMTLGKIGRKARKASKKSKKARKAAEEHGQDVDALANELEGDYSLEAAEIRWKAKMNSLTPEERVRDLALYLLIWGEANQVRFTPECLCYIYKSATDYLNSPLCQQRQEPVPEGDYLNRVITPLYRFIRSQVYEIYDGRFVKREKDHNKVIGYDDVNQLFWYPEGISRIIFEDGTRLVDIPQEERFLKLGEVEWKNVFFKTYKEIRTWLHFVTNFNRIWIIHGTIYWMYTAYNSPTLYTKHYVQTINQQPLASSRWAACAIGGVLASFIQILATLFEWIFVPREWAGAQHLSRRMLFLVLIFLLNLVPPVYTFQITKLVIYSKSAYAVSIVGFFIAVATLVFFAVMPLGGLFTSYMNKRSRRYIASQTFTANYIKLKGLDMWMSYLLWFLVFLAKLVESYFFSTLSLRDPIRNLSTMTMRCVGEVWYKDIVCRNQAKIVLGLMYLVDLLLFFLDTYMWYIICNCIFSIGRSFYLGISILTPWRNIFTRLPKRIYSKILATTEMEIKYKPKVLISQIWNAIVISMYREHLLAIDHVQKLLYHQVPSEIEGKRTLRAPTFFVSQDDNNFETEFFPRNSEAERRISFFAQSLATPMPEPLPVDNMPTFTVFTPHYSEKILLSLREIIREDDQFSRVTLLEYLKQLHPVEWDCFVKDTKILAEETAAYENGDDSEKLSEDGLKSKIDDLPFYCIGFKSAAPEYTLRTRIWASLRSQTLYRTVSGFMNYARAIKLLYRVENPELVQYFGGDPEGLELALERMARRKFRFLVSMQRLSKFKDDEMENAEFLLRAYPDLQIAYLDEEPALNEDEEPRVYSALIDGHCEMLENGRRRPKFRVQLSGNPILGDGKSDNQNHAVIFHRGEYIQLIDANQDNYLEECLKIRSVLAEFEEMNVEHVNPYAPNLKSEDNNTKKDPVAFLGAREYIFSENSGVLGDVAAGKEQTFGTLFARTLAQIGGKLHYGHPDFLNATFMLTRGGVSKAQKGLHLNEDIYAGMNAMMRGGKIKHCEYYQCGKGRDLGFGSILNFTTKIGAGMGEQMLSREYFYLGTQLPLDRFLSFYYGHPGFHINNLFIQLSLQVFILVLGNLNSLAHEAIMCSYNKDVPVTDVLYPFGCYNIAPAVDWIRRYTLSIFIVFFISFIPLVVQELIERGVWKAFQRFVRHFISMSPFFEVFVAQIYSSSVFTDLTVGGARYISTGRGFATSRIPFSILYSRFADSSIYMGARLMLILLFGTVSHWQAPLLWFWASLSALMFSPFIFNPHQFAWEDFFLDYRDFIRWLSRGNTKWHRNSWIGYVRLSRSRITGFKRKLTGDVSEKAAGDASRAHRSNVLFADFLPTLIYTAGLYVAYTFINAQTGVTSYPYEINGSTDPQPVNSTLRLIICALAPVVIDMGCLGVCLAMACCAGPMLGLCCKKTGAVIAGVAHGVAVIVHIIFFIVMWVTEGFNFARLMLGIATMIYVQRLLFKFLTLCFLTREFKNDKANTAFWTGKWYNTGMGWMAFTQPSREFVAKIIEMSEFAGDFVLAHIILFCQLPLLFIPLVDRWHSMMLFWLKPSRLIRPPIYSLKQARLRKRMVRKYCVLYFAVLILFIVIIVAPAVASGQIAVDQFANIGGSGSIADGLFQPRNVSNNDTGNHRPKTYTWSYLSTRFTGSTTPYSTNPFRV
T1 sequence (O42825 whole entry partner): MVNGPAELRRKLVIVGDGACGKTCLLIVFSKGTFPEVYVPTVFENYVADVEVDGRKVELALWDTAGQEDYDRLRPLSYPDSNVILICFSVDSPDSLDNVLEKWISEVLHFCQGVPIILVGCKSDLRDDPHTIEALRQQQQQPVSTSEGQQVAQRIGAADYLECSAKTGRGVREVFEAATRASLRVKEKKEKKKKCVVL

As for `CCCCCCCCOc1ccc(-c2ccc(C(=O)NC3CC(NCCN)CNC(=O)C4C(O)C(C)CN4C(=O)C(CO)NC(=O)C(C(O)Cc4ccc(O)cc4)NC(=O)C4CC(O)CN4C(=O)C(C(C)O)NC3=O)cc2)cc1.O=C(O)C(F)(F)F` (single isomer, unassigned; isomer a) [Example 14, Trifluoroacetate of 1-[4-[(2-Aminoethyl)amino]N2-[[4′-(octyloxy)[1.1′-biphenyl]4-yl]carbonyl]-L-ornithine]4-[4-(4-hydroxyphenyl)-L-threonine]-5-L Serine Echinocandin B (Isomer A)], the “Inhibition of the Glucane Synthesis of Candida albicans (activity in this test)” value (“Inhibition” below) is recorded as “good activity”.

On to “(±) Trifluoroacetate of 1-[4-[(Aminoiminomethyl) hydrazono]-N2-(12-methyl-1-oxotetradecyl)-L-ornithine]4-[4-(4-hydroxyphenyl)-L-threonine]-5-L Serine Echinocandin B [Example 11]”, for which the “Inhibition” value is “good activity”.

Take “Trifluoroacetate of 1-[4-[(2-Aminoethyl)amino]-N2-(12-methyl-1-oxotetradecyl)-L-ornithine]4-[4-(4-hydroxyphenyl)-L-threonine]-5-L Serine Echinocandin B (Isomer A and Isomer B) [Example 9]”: the “Inhibition” value is “good activity”.
